Structures can show the parent of a compound that is named as a salt. Where two headings read alike, the source gives them in different places.
How the values were obtained:
[1] = tested on: RML-infected hemizygous Tg37+/- mice; details: mouse, in vivo; cited from earlier work
[2] = tested on: 263K scrapie-infected hamster cerebellar tissue slices; assay type: cell-based, golden hamster; details: for PrPSc levels, comparison of c-Abl tyrosine kinase inhibitors: 10 and 20 μM for 5 weeks (Supplementary Figure S3)
[3] = tested on: scrapie-infected mice; details: cited from earlier work
[4] = hamster, in vivo; for T1/2: male, golden
[5] = in vivo; details: male, hamster; for half-life / Tmax: po; for half-life: T1/2; for Kp: B/P ratio (%)
[6] = tested on: ZW13-2, ZW13-2-22L and ZW13-2-139A cells
[7] = mouse, in vivo; cited from earlier work
[8] = tested on: ZW13-2-139A cells; assay type: cell-based, mouse
[9] = tested on: 263K scrapie strain; assay type: in vivo, golden hamster
[10] = tested on: 22L scrapie-infected Tga20 cerebellar tissue slices; assay type: cell-based, Tga20 mouse; details: 25 μM, slices cultured for 3 or 5 weeks
[11] = tested on: 263K scrapie strain; assay type: in vivo, golden hamster; details: 100 mg/kg IG
[12] = tested on: ZW13-2-22L cells; assay type: cell-based, mouse

## O=C(CC(=O)c1ccccc1)c1ccccc1 [dibenzoylmethane]
[1]
  survival: significantly prolong survival without reducing the PrP^Sc levels

## Cc1ccc(NC(=O)c2ccc(CN3CCN(C)CC3)cc2)cc1Nc1nccc(-c2cccnc2)n1 [imatinib, imatinib mesylate]
[2]
  PrPSc levels, comparison of c-Abl tyrosine kinase inhibitors: had no effect
[3]
  survival times of scrapie-infected mice: prolongs the survival times of scrapie-infected mice

## Cc1cn(-c2cc(NC(=O)c3ccc(C)c(Nc4nccc(-c5cccnc5)n4)c3)cc(C(F)(F)F)c2)cn1 [nilotinib, nilotinib hydrochloride monohydrate]
[2]
  PrPSc levels, comparison of c-Abl tyrosine kinase inhibitors: reduced PrP^Sc levels
[4]; po, 60 mg/kg
  T1/2: 1.4 ± 0.3 h
[4]; po, 100 mg/kg
  T1/2: 1.4 ± 0.7 h
[5]; golden, 60 mg/kg
  half-life: 1 ± 0.4 h
[5]; golden, 100 mg/kg
  half-life: 1.2 ± 0.2 h

## Cc1cn(-c2cc(NC(=O)c3ccc(C)c(Nc4nccc(-c5cnccn5)n4)c3)cc(C(F)(F)F)c2)cn1 [radotinib, Radotinib hydrochloride]
[6]
  cell viability: No decrease in viability
[7]
  blood–brain barrier crossing: effectively crosses the blood–brain barrier
[2]; 0–40 μM for 5 weeks
  PrPSc propagation: reduced PrP^Sc propagation in 263K scrapie-infected hamster cerebellar tissue slices in a dose-dependent manner
[2]; 10 μM, final 2 weeks of 5-week culture
  PrPSc propagation, treatment in the final 2 weeks: effectively inhibited PrP^Sc propagation
[2]; 10 μM, final one week of 5-week culture
  PrPSc propagation, one week of treatment: did not reduce PrP^Sc propagation
[2]
  PrPSc levels, comparison of c-Abl tyrosine kinase inhibitors: reduced PrP^Sc accumulation
[2]; 10–40 μM, 2 weeks without drug then final 3 weeks with radotinib
  levels of PrPSc, later treatment: dramatically reduced the levels of PrP^Sc
[8]
  PrPSc levels: mild reduction in PrP^Sc levels
[9]; 30 mg/kg IG, n = 8
  survival time, range: 140–154 dpi
[9]; 30 mg/kg IG, n = 8, p = 0.05848
  mean survival time: 145.1 ± 5.3 dpi
[9]; 60 mg/kg IG, n = 8
  survival time, range: 112–208 dpi
[9]; 60 mg/kg IG, n = 8, p = 0.03022
  mean survival time: 161.0 ± 34.8 dpi
[9]; 100 mg/kg IG for the initial 10 weeks (10W-initial), n = 10, p = 0.0446
  survival time: 149.6 ± 25.3 dpi
[9]; 100 mg/kg IG for the initial 10 weeks, n = 10
  survival time, range: 112–191 dpi
[9]; 100 mg/kg IG once a day, 6 days a week, n = 12
  survival time, range: 124–223 dpi
[9]; 100 mg/kg IG once a day, 6 days a week, n = 12, p = 0.00217 vs vehicle (135.1 ± 9.9)
  survival time: 159.3 ± 28.6 dpi
[9]; 100 mg/kg IG started 4 weeks postinoculation (4W-post), n = 9, p = 0.02333
  mean survival time: 158.0 ± 31.9 dpi
[9]; 100 mg/kg IG started 4 weeks postinoculation, n = 9
  survival time, range: 126–210 dpi
[9]; 100 mg/kg IG started 8 weeks postinoculation (8W-post), n = 9, p = 0.08559
  mean survival time: 146.9 ± 23.7 dpi
[9]; 100 mg/kg IG started 8 weeks postinoculation, n = 9
  survival time, range: 114–181 dpi
[9]; 100 mg/kg intragastrically, nontreated 135 ± 9.9 days
  survival times (abstract): 159 ± 28.6 days
[9]; 200 mg/kg IG, n = 8
  survival time, range: 112–210 dpi
[9]; 200 mg/kg IG, n = 8, p = 0.01944
  mean survival time: 157.0 ± 33.9 dpi
[9]; intraperitoneal route, 10 mg/kg/day 6 days a week, n = 6, no significant difference
  survival time: 155 ± 50 dpi
[10]
  PrPSc propagation: reduced PrP^Sc propagation
[4]
  blood–brain barrier crossing in hamsters: effectively crosses the BBB in hamsters
[4]; po, 100 mg/kg
  Tmax Median (range, h): 6.0 ± 1.15 (6.0–8.0) h
[5]; golden, 60 mg/kg, AUClast
  Kp: 0.137 ± 0.021
[5]; golden, 60 mg/kg, Cmax
  Kp: 0.137 ± 0.023
[5]; golden, 100 mg/kg, AUClast
  Kp: 0.232 ± 0.155
[5]; golden, 100 mg/kg, Cmax
  Kp: 0.149 ± 0.014
[5]; golden, 60 mg/kg
  Tmax: 6 h
[5]; golden, 100 mg/kg
  Tmax: 6 h
  half-life: 3.3 h
[5]; 60 mg/kg, AUClast
  Kp: 0.137 ± 0.021
[5]; 100 mg/kg, AUClast
  Kp: 0.232 ± 0.155
[11]; hamsters sacrificed at 146 dpi
  PrPSc levels in the brains, Western blot: markedly decreased
[11]; hamsters that died naturally
  PrPSc levels in the brains, Western blot: also high
[11]; sacrificed on 146 dpi, compared to control-treated infected hamsters
  total PrP and PK-resistant PrPSc levels in the brains, immunohistochemical staining: definitely lower
[12]
  PrPSc levels: mild reduction in PrP^Sc levels

## O=c1n(CCCN2CCN(c3cccc(Cl)c3)CC2)nc2ccccn12 [trazodone hydrochloride]
[1]
  survival: significantly prolong survival without reducing the PrP^Sc levels

From paper PMC10419185 (International Journal of Molecular Sciences, 2023)
